Read-outs that look alike come from different tables or passages of the source. Where a SMILES comes first, the peptide text is derived from it. Bridges are numbered along the chain shown (N, C = ends). [ ]: non-standard residue; d: D form. The star is where a group is joined. 2Nal = N[C@@H](Cc1ccc2ccccc2c1)C(=O)O; N(Me)CH2CH2Ph = CN(CCc1ccccc1)*; pGlu = O=C1CC[C@@H](C(=O)O)N1; NHPhenethyl = c1ccc(CCN*)cc1; d(hCys) = N[C@H](CCS)C(=O)O; dNle = CCCC[C@@H](N)C(=O)O; hCys = N[C@@H](CCS)C(=O)O; Nle = CCCC[C@H](N)C(=O)O

The data set can be described thus: Surrogate Activity-Based Plasma Stability Assay. The format is in vitro ADME. Particulars: rat. The source says: Surrogate Activity-Based Plasma Stability Assay:
2) Calculate slope of value above and […]

`CCCC[C@H](NC(=O)[C@@H]1CCCN1C(=O)CNC(=O)[C@H](CCCCN)NC(=O)[C@@H]1CSSC[C@H](NC(C)=O)C(=O)N[C@@H](CCCNC(=N)N)C(=O)N2CCC[C@H]2C(=O)N[C@@H](CCCNC(=N)N)C(=O)N[C@@H](CC(C)C)C(=O)N[C@@H](CO)C(=O)N1)C(=O)N1CCC[C@H]1C(=O)N[C@@H](Cc1ccccc1)C(=O)O` [Example 1, Ac-C*-R-P-R-L-S-C*-K-G-P-Nle-P-F-OH] (Ac-CRPRLSCKGP[Nle]PF-OH; disulfide 1-7) yielded a half-life of 8 min.
`CCCC[C@H](NC(=O)[C@@H]1CCCN1C(=O)CNC(=O)[C@H](CCCCN)NC(=O)[C@@H]1CSSC[C@H](NC(C)=O)C(=O)N[C@@H](CCCNC(=N)N)C(=O)N2CCC[C@H]2C(=O)N[C@@H](CCCNC(=N)N)C(=O)N[C@@H](CC(C)C)C(=O)N[C@@H](CO)C(=O)N1)C(=O)N1CCC[C@H]1C(=O)NCCc1ccccc1` [Example 2, Ac-C*-R-P-R-L-S-C*-K-G-P-Nle-P-NH(Phenethyl)] (Ac-CRPRLSCKGP[Nle]P-NHPhenethyl; disulfide 1-7) came in with a half-life of 39 min.
Same read-out and setting: the value for `CCCC[C@H](NC(=O)[C@@H]1CCCN1C(=O)CNC(=O)[C@H](CCCCN)NC(=O)[C@@H]1CSSC[C@H](NC(C)=O)C(=O)N[C@@H](CCCNC(=N)N)C(=O)N2CCC[C@H]2C(=O)N[C@@H](CCCNC(=N)N)C(=O)N[C@@H](CC(C)C)C(=O)N[C@@H](CO)C(=O)N1)C(=O)N1CCC[C@H]1C(N)=O` [Example 4, Ac-C*-R-P-R-L-S-C*-K-G-P-Nle-P-NH2] (Ac-CRPRLSCKGP[Nle]P-NH2; disulfide 1-7) was 506 min; that for `CCCC[C@H](NC(=O)[C@@H]1CCCN1C(=O)CNC(=O)[C@H](CCCCN)NC(=O)[C@@H]1CSSC[C@H](NC(C)=O)C(=O)N[C@@H](CCCNC(=N)N)C(=O)N2CCC[C@H]2C(=O)N[C@@H](CCCNC(=N)N)C(=O)N[C@@H](CC(C)C)C(=O)N[C@@H](CO)C(=O)N1)C(=O)N1CCC[C@H]1C(=O)N[C@@H](Cc1ccc2ccccc2c1)C(=O)O` [Example 5, Ac-C*-R-P-R-L-S-C*-K-G-P-Nle-P-Nal-OH] (Ac-CRPRLSCKGP[Nle]P[2Nal]-OH; disulfide 1-7) was 5 min.
As to `CCCC[C@H](NC(=O)[C@@H]1CCCN1C(=O)CNC(=O)[C@H](CCCCN)NC(=O)[C@@H]1CCSSCC[C@H](NC(C)=O)C(=O)N[C@@H](CCCNC(=N)N)C(=O)N2CCC[C@H]2C(=O)N[C@@H](CCCNC(=N)N)C(=O)N[C@@H](CC(C)C)C(=O)N[C@@H](CO)C(=O)N1)C(=O)N1CCC[C@H]1C(=O)N[C@@H](Cc1ccccc1)C(=O)O` [Example 7, Ac-hC*-R-P-R-L-S-hC*-K-G-P-Nle-P-F-OH] (Ac-[hCys]RPRLS[hCys]KGP[Nle]PF-OH; disulfide 1-7), the half-life is 9 min.
The same measure, in the same setting: the value for `CCCC[C@H](NC(=O)[C@@H]1CCCN1C(=O)CNC(=O)[C@H](CCCCN)NC(=O)[C@@H]1CSSC[C@H](NC(C)=O)C(=O)N[C@@H](CCCNC(=N)N)C(=O)N2CCC[C@H]2C(=O)N[C@@H](CCCNC(=N)N)C(=O)N[C@@H](CC(C)C)C(=O)N[C@@H](CO)C(=O)N1)C(=O)N1CCC[C@H]1C(=O)N[C@H](C)C(=O)O` [Example 8, Ac-C*-R-P-R-L-S-C*-K-G-P-Nle-P-a-OH] (Ac-CRPRLSCKGP[Nle]P[dA]-OH; disulfide 1-7) was 662 min.
As for `CCCC[C@H](NC(=O)[C@@H]1CCCN1C(=O)CNC(=O)[C@H](CCCCN)NC(=O)[C@@H]1CSSC[C@H](NC(C)=O)C(=O)N[C@@H](CCCNC(=N)N)C(=O)N2CCC[C@H]2C(=O)N[C@@H](CCCNC(=N)N)C(=O)N[C@@H](CC(C)C)C(=O)N[C@@H](CO)C(=O)N1)C(=O)N1CCC[C@H]1C(=O)N(C)CCc1ccccc1` [Example 9, Ac-C*-R-P-R-L-S-C*-K-G-P-Nle-P-NMe(Phenethyl)] (Ac-CRPRLSCKGP[Nle]P-{N(Me)CH2CH2Ph}; disulfide 1-7), the half-life (read-out: Surrogate activity-based Plasma stability t½) came out at 109 min.
The molecule `CCCC[C@H](NC(=O)[C@@H]1CCCN1C(=O)CNC(=O)[C@H](CCCCN)NC(=O)[C@@H]1CSSC[C@H](NC(C)=O)C(=O)N[C@@H](CCCNC(=N)N)C(=O)N2CCC[C@H]2C(=O)N[C@@H](CCCNC(=N)N)C(=O)N[C@@H](CC(C)C)C(=O)N[C@@H](CO)C(=O)N1)C(=O)N1CCC[C@H]1C(=O)N[C@H](Cc1ccccc1)C(=O)O` [Example 10, Ac-C*-R-P-R-L-S-C*-K-G-P-Nle-P-f-OH] (Ac-CRPRLSCKGP[Nle]P[dF]-OH; disulfide 1-7) yielded a half-life of 57.4 min.
The same measure, in the same setting: the value for `CCCC[C@H](NC(=O)[C@@H]1CCCN1C(=O)CNC(=O)[C@H](CCCCN)NC(=O)[C@@H]1CSSC[C@H](NC(C)=O)C(=O)N[C@@H](CCCNC(=N)N)C(=O)N2CCC[C@H]2C(=O)N[C@@H](CCCNC(=N)N)C(=O)N[C@@H](CC(C)C)C(=O)N[C@@H](CO)C(=O)N1)C(=O)NCCc1ccccc1` [Example 11, Ac-C*-R-P-R-L-S-C*-K-G-P-Nle-NH(Phenethyl)] (Ac-CRPRLSCKGP[Nle]-NHPhenethyl; disulfide 1-7) was 32.8 min; that for `CCCC[C@H](NC(=O)[C@@H]1CCCN1C(=O)CNC(=O)[C@H](CCCCN)NC(=O)[C@@H]1CCSSC[C@@H](NC(C)=O)C(=O)N[C@@H](CCCNC(=N)N)C(=O)N2CCC[C@H]2C(=O)N[C@@H](CCCNC(=N)N)C(=O)N[C@@H](CC(C)C)C(=O)N[C@@H](CO)C(=O)N1)C(=O)N1CCC[C@H]1C(=O)N[C@@H](Cc1ccccc1)C(=O)O` [Example 13, Ac-c*-R-P-R-L-S-hC*-K-G-P-Nle-P-F-OH] (Ac-[dC]RPRLS[hCys]KGP[Nle]PF-OH; disulfide 1-7) was 10 min; that for `CCCC[C@H](NC(=O)[C@@H]1CCCN1C(=O)CNC(=O)[C@H](CCCCN)NC(=O)[C@H]1CSSC[C@@H](NC(C)=O)C(=O)N[C@@H](CCCNC(=N)N)C(=O)N2CCC[C@H]2C(=O)N[C@@H](CCCNC(=N)N)C(=O)N[C@@H](CC(C)C)C(=O)N[C@@H](CO)C(=O)N1)C(=O)N1CCC[C@H]1C(=O)N[C@@H](Cc1ccccc1)C(=O)O` [Example 14, Ac-c*-R-P-R-L-S-c*-K-G-P-Nle-P-F-OH] (Ac-[dC]RPRLS[dC]KGP[Nle]PF-OH; disulfide 1-7) was 7.5 min.
On the same count and under the same terms, the value for `CCCC[C@H](NC(=O)[C@@H]1CCCN1C(=O)CNC(=O)[C@H](CCCCN)NC(=O)[C@@H]1CCSSCC[C@@H](NC(C)=O)C(=O)N[C@@H](CCCNC(=N)N)C(=O)N2CCC[C@H]2C(=O)N[C@@H](CCCNC(=N)N)C(=O)N[C@@H](CC(C)C)C(=O)N[C@@H](CO)C(=O)N1)C(=O)N1CCC[C@H]1C(=O)N[C@@H](Cc1ccccc1)C(=O)O` [Example 16, Ac-(D-hC)*-R-P-R-L-S-hC*-K-G-P-Nle-P-F-OH] (Ac-[d(hCys)]RPRLS[hCys]KGP[Nle]PF-OH; disulfide 1-7) was 7 min; that for `CCCC[C@H](NC(=O)[C@@H]1CCCN1C(=O)CNC(=O)[C@H](CCCCN)NC(=O)[C@H]1CCSSCC[C@@H](NC(C)=O)C(=O)N[C@@H](CCCNC(=N)N)C(=O)N2CCC[C@H]2C(=O)N[C@@H](CCCNC(=N)N)C(=O)N[C@@H](CC(C)C)C(=O)N[C@@H](CO)C(=O)N1)C(=O)N1CCC[C@H]1C(=O)N[C@@H](Cc1ccccc1)C(=O)O` [Example 17, Ac-(D-hC)*-R-P-R-L-S-(D-hC)*-K-G-P-Nle-P-F-OH] (Ac-[d(hCys)]RPRLS[d(hCys)]KGP[Nle]PF-OH; disulfide 1-7) was 11.4 min.
Still for that read-out and setting: the value for `CC(=O)N[C@@H]1CCSSCC[C@@H](C(=O)N[C@@H](CCCCN)C(=O)NCC(=O)N2CCC[C@H]2C(=O)N[C@H](Cc2ccccc2)C(=O)N[C@H](C)C(=O)N[C@H](Cc2ccccc2)C(=O)O)NC(=O)[C@H](CO)NC(=O)[C@H](CC(C)C)NC(=O)[C@H](CCCNC(=N)N)NC(=O)[C@@H]2CCCN2C(=O)[C@H](CCCNC(=N)N)NC1=O` [Example 18, Ac-(D-hC)*-R-P-R-L-S-(hC)*-K-G-P-f-a-f-OH] (Ac-[d(hCys)]RPRLS[hCys]KGP[dF][dA][dF]-OH; disulfide 1-7) was 50 min.
`CCCC[C@@H](NC(=O)[C@@H]1CCCN1C(=O)CNC(=O)[C@H](CCCCN)NC(=O)[C@@H]1CCSSC[C@@H](NC(C)=O)C(=O)N[C@@H](CCCNC(=N)N)C(=O)N2CCC[C@H]2C(=O)N[C@@H](CCCNC(=N)N)C(=O)N[C@@H](CC(C)C)C(=O)N[C@@H](CO)C(=O)N1)C(=O)N[C@H](C)C(=O)N[C@H](Cc1ccccc1)C(=O)O` [Example 19, Ac-c-R-P-R-L-S-(hC)-K-G-P-(D-Nle)-a-f-OH] (Ac-[dC]RPRLS[hCys]KGP[dNle][dA][dF]-OH; disulfide 1-7 (inferred)) showed a half-life of 50 min.
The same measure, in the same setting: the result for `CCCC[C@H](NC(=O)[C@@H]1CCCN1C(=O)CNC(=O)[C@H](CCCCN)NC(=O)[C@@H]1CSSC[C@H](NC(=O)[C@H](CCCNC(=N)N)NC(=O)[C@@H]2CCC(=O)N2)C(=O)N[C@@H](CCCNC(=N)N)C(=O)N[C@@H](CC(C)C)C(=O)N[C@@H](CO)C(=O)N1)C(=O)N1CCC[C@H]1C(=O)N[C@@H](Cc1ccccc1)C(=O)O` [Example 20, pE-R-C*-R-L-S-C*-K-G-P-Nle-P-F-OH] ([pGlu]RCRLSCKGP[Nle]PF-OH; disulfide 3-7) reads 11.9 min; that for `CCCC[C@@H](NC(=O)[C@@H]1CCCN1C(=O)CNC(=O)[C@H](CCCCN)NC(=O)[C@@H]1CSSC[C@H](NC(=O)[C@H](CCCNC(=N)N)NC(=O)[C@@H]2CCC(=O)N2)C(=O)N[C@@H](CCCNC(=N)N)C(=O)N[C@@H](CC(C)C)C(=O)N[C@@H](CO)C(=O)N1)C(=O)N[C@H](C)C(=O)N[C@H](Cc1ccccc1)C(=O)O` [Example 21, pE-R-C*-R-L-S-C*-K-G-P-(D-Nle)-a-f-OH] ([pGlu]RCRLSCKGP[dNle][dA][dF]-OH; disulfide 3-7), more than 1000 min; that for `CCCC[C@@H](NC(=O)[C@@H]1CCCN1C(=O)CNC(=O)[C@H](Cc1ccccc1)NC(=O)[C@@H]1CSSC[C@H](NC(=O)[C@H](CCCNC(=N)N)NC(=O)[C@@H]2CCC(=O)N2)C(=O)N[C@@H](CCCNC(=N)N)C(=O)N[C@@H](CC(C)C)C(=O)N[C@@H](CO)C(=O)N1)C(=O)N[C@H](C)C(=O)N[C@H](Cc1ccccc1)C(=O)O` [Example 22, pE-R-C*-R-L-S-C*-F-G-P-(D-Nle)-a-f-OH] ([pGlu]RCRLSCFGP[dNle][dA][dF]-OH; disulfide 3-7), more than 1000 min.

These data come from patent US9683019B2, “Cyclic polypeptides for the treatment of heart failure” (priority 2013, dated 2017).
